Measurements: PubChem BioAssay (NCI)
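Test compounds were applied to cells in 96-well plates for 48 hours at 5 doses. The concentration for full growth arrest is given as TGI.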

How the values were obtained:
Assay in all cases: NCI anticancer screen, dose series, 48 h
786-0 renal = system: 786-0 renal
BT-549 breast = system: BT-549 breast
CAKI-1 renal = system: CAKI-1 renal
COLO 205 colon = system: COLO 205 colon
EKVX NSCLC = system: EKVX NSCLC
HCT-116 colon = system: HCT-116 colon
HT29 colon = system: HT29 colon
K-562 leukemia = system: K-562 leukemia
KM12 colon = system: KM12 colon
LOX IMVI melanoma = system: LOX IMVI melanoma
MDA-MB-231 breast = system: MDA-MB-231 breast
OVCAR-8 ovarian = system: OVCAR-8 ovarian
SF-268 CNS = system: SF-268 CNS
SF-295 CNS = system: SF-295 CNS
SK-MEL-2 melanoma = system: SK-MEL-2 melanoma
SK-MEL-28 melanoma = system: SK-MEL-28 melanoma
SNB-19 CNS = system: SNB-19 CNS
SW-620 colon = system: SW-620 colon
TK-10 renal = system: TK-10 renal
HOP-92 NSCLC = system: HOP-92 NSCLC

Row | SMILES | TGI (786-0 renal) | TGI (BT-549 breast) | TGI (CAKI-1 renal) | TGI (COLO 205 colon) | TGI (EKVX NSCLC) | TGI (HCT-116 colon) | TGI (HT29 colon) | TGI (K-562 leukemia) | TGI (KM12 colon) | TGI (LOX IMVI melanoma) | TGI (MDA-MB-231 breast) | TGI (OVCAR-8 ovarian) | TGI (SF-268 CNS) | TGI (SF-295 CNS) | TGI (SK-MEL-2 melanoma) | TGI (SK-MEL-28 melanoma) | TGI (SNB-19 CNS) | TGI (SW-620 colon) | TGI (TK-10 renal) | TGI (HOP-92 NSCLC)
1 | CC(C)(C)OC(=O)CC(NC(=O)OC(C)(C)C)C(=O)NC(C(=O)O)C(O)c1ccccc1 (stereo unspecified) | > 100 µM | > 100 µM | > 100 µM | > 100 µM | > 100 µM | > 100 µM | > 100 µM | > 100 µM | > 100 µM | > 100 µM | > 100 µM | > 100 µM | > 100 µM | > 100 µM | > 100 µM | > 100 µM | > 100 µM | > 100 µM | > 100 µM | 
2 | CNC(=O)C1CCCN1C(=O)C(Cc1cnc[nH]1)NC(=O)C1CCC(=O)N1 (stereo unspecified) | > 100 µM | > 100 µM | > 100 µM | > 100 µM | > 100 µM | > 100 µM | > 100 µM | > 100 µM | > 100 µM | > 100 µM | > 100 µM | > 100 µM | > 100 µM | > 100 µM |  | > 100 µM | > 100 µM | > 100 µM | > 100 µM | > 100 µM
3 | C(=NCCCN1CCN(CCCN=Cc2cccc3ccccc23)CC1)c1cccc2ccccc12 | > 100 µM | 90.8 µM | > 100 µM | > 100 µM | > 100 µM | > 100 µM | > 100 µM | > 100 µM | > 100 µM | > 100 µM | > 100 µM | > 100 µM | > 100 µM | > 100 µM | > 100 µM | > 100 µM | > 100 µM | > 100 µM | > 100 µM | 
4 | C/C=C1\CNC1C(=O)O (stereo unspecified) | > 100 µM | > 100 µM | > 100 µM | > 100 µM | > 100 µM | > 100 µM | > 100 µM | > 100 µM |  | > 100 µM |  | > 100 µM | > 100 µM | > 100 µM | > 100 µM | > 100 µM | > 100 µM | > 100 µM | > 100 µM | > 100 µM
5 | CCOC(=O)c1nnsc1NN=C(C)C | > 100 µM | > 100 µM | > 100 µM | > 100 µM | > 100 µM | > 100 µM | > 100 µM | > 100 µM | > 100 µM | > 100 µM | > 100 µM | > 100 µM | > 100 µM | > 100 µM | > 100 µM | > 100 µM |  | > 100 µM | > 100 µM | 
6 | CC(C)n1c(=O)[nH]n(-c2ccccc2)c1=O | > 100 µM |  | > 100 µM | > 100 µM | > 100 µM | > 100 µM | > 100 µM | > 100 µM | > 100 µM | > 100 µM | > 100 µM | > 100 µM | > 100 µM | > 100 µM | > 100 µM | > 100 µM | > 100 µM | > 100 µM | > 100 µM | > 100 µM
7 | COC(=O)c1ccc(COC(=O)N2C=CCC2C(=O)O)cc1 (stereo unspecified) | > 100 µM | > 100 µM | > 100 µM | > 100 µM |  |  | > 100 µM | > 100 µM | > 100 µM |  | > 100 µM | > 100 µM | > 100 µM | > 100 µM | > 100 µM | > 100 µM | > 100 µM | > 100 µM | > 100 µM | > 100 µM
8 | Cc1sc(Nc2ccccc2[N+](=O)[O-])c(C#N)c1C | 61.7 µM | 57.9 µM | > 100 µM | > 100 µM | > 100 µM | > 100 µM |  | > 100 µM | > 100 µM |  | 65.8 µM | > 100 µM | 61.8 µM | > 100 µM |  | > 100 µM | 61.9 µM |  |  | 53 µM
9 | O=c1c2cc(-c3ccccc3)cnc2sn1-c1ccc(Oc2ccccc2)cc1 | 36.4 µM | 62.4 µM | > 100 µM | > 100 µM | > 100 µM | > 100 µM | 47.6 µM | > 100 µM | > 100 µM |  | 34.9 µM | > 100 µM | > 100 µM | > 100 µM | > 100 µM | > 100 µM | 54.7 µM | > 100 µM |  | > 100 µM
10 | O=P(c1ccccc1)(c1ccccc1)c1ccc2c(c1)OCCOCCOCCOCCO2 | > 100 µM | > 100 µM | > 100 µM | > 100 µM | > 100 µM | > 100 µM |  | > 100 µM | > 100 µM | > 100 µM | > 100 µM | > 100 µM | > 100 µM | > 100 µM |  | > 100 µM | > 100 µM | > 100 µM | > 100 µM | 
11 | O=[N+]([O-])c1ccc(N/N=C(\c2ccccc2)c2ccccn2)nc1 | 23.4 µM | 87.1 µM | 29.1 µM | > 60 µM | 17.3 µM | 29.8 µM | > 100 µM | > 100 µM | > 45.8 µM |  | 61.7 µM | 23.8 µM | 35.5 µM | 25.7 µM | > 94.9 µM | > 100 µM | > 42.5 µM | > 77.1 µM |  | 43.8 µM
12 | Cc1cn([C@H]2C[C@@H]3[C@@H](COC(CCl)N3O)O2)c(=O)[nH]c1=O (stereo partly specified) | > 100 µM | > 100 µM | > 100 µM | > 100 µM | > 100 µM | > 100 µM | > 100 µM | > 100 µM | > 100 µM | > 100 µM |  | > 100 µM | > 100 µM | > 100 µM | > 100 µM | > 100 µM | > 100 µM | > 100 µM | > 100 µM | 
13 | CCC(CCN)(CCN)[N+](=O)[O-] | > 100 µM | > 100 µM | > 100 µM | > 100 µM | > 100 µM | > 100 µM | > 100 µM | > 100 µM | > 100 µM |  | > 100 µM | > 100 µM | > 100 µM | > 100 µM | > 100 µM |  |  | > 100 µM |  | > 100 µM
